In patent publication US20120196899A1, “METHODS AND PRODUCTS FOR TREATING INFLAMMATION” (Rock Creek Pharmaceuticals, Inc., priority 2010, published 2012):
“And” between values parts separate entries of the source, which are not always exact repeats. Equal values may be shown once.

Columns and labels:
[1] = tested on: TNFα-induced NFκB activity; test: NFκB luciferase assay (inhibition of TNFα-induced NFκB activity) in HEK293 reporter cells; format: cell-based, Human; details: HEK293 reporter cells challenged with TNFα for three hours
Procedure: The smokeless tobacco used in these experiments was plain long-leaf Copenhagen tobacco purchased from a local vendor. Crude extract was extracted with methanol and water and clarified by centrifugation and filtration. The alkaloid extract was prepared from sodium hydroxide and methanol extraction, organic phase separation and purification. All treatment samples were prepared as a function of weight (μg/ml), and all samples were diluted in DMSO.
Human […] kidney cells (HEK293) transfected with an NFκB luciferase reporter were challenged with TNFα for three hours, then samples were applied to the challenged cells.

[2] = Physical signs after single i.v. dose (Example 3); format: in vivo, Sprague-Dawley rats; details: anatabine 0.1, 0.75, 1.0 mg/kg single i.v., rats
Procedure: Four aliquots of each dose level formulation were collected and stored at −80° C. The test compound, corresponding dose level, number of animals, and sample collection times for Phase I of the study are shown in Table 3. The test compound, corresponding dose level, number of animals, and sample collection times for Phase II of the study are shown in Table 4. The physical signs of each animal were monitored following administration of the test compound.

[3] = Necropsy observations and organ weights, day 15; format: in vivo, Sprague-Dawley rats; details: for Tissue Collection Weights: Brain / Tissue Collection Weights: Heart / Tissue Collection Weights: Kidneys / Tissue Collection Weights: Liver / Tissue Collection Weights: Lungs / Tissue Collection Weights: Ovaries/uterus / Tissue Collection Weights: Small intestine / Tissue Collection Weights: Spleen / Tissue Collection Weights: Thymus / Tissue Collection Weights: Prostate / Tissue Collection Weights: Testes: individual animals; for Organ Weight Brain, Mean / Organ Weight Heart, Mean / Organ Weight Kidneys, Mean / Organ Weight Liver, Mean / Organ Weight Lungs, Mean / Organ Weight Prostate, Mean / Organ Weight Small intestine, Mean / Organ Weight Spleen, Mean / Organ Weight Testes, Mean / Organ Weight Thymus, Mean: male rats; for Organ Weight Brain / Organ Weight Heart / Organ Weight Kidneys / Organ Weight Liver / Organ Weight Lungs / Organ Weight Ovaries/uterus / Organ Weight Small intestine / Organ Weight Spleen / Organ Weight Thymus: female animals, group mean
Procedure: Body weight and food consumption was measured daily for 14 days. On day 15, urine was collected on all surviving animals. The animals were euthanized and bled via cardiac puncture, and blood was collected for analysis. Tissues were collected, weighed, evaluated for gross abnormalities, and stored in 10% neutral-buffered formalin.
(§1) On day 15, urine was collected on all surviving animals for urinalysis. The animals were euthanized and bled via cardiac puncture. Blood was collected for hematology, clinical chemistry, and coagulation analysis. Tissues were collected, weighed, and stored in 10% neutral-buffered formalin for possible future analysis.

[4] = Coagulation parameters (aPTT, PT), day 15; format: in vivo, Sprague-Dawley rats
Excerpt: as §1
Individual values for the coagulation parameters activated partial thromboplastin (aPTT) and prothrombin times (PT) for each animal are listed in Table 34 (normal ranges, Table 30). These are summarized in terms of descriptive statistics in Table 25.

nAChR α4/β2 = target: T1, nAChR α4/β2 (Homo sapiens, UniProt P17787+P43681); test: nAChR α4/β2 channel agonist assay (FLIPR membrane potential); format: cell-based; details: 0.3-1000 μM
T1 construct: host or cells: HEK293 cells, transient transfection
T1 sequence (P17787 26-502): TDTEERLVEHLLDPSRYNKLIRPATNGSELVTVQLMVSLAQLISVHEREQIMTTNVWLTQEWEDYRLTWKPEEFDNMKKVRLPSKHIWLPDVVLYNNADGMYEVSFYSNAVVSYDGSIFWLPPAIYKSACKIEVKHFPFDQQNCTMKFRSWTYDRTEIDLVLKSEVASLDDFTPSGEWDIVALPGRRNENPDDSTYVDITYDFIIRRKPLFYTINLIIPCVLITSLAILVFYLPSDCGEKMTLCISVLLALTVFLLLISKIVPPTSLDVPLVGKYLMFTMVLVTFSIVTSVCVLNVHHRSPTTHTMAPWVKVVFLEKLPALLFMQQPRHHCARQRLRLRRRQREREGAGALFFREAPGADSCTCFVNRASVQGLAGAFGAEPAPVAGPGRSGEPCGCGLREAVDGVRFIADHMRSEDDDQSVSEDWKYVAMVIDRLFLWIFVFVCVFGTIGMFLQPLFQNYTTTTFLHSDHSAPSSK
T1 sequence (P43681 29-627): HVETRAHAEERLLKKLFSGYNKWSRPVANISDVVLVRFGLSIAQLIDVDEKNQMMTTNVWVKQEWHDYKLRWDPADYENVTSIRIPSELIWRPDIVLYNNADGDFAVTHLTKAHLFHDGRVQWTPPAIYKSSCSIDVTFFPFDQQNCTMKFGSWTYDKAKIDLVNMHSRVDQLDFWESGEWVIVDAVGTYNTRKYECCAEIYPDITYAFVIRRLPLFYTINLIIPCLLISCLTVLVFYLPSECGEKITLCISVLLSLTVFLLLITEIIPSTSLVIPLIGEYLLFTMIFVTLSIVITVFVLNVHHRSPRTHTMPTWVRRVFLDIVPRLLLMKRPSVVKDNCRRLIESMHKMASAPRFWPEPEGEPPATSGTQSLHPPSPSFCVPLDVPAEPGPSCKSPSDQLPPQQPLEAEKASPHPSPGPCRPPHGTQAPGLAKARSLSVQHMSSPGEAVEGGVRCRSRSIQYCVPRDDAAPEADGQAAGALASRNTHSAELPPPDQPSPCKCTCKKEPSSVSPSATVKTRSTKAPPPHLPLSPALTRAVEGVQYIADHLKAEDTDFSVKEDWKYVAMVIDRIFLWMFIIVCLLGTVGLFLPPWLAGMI
Procedure: (§2) The following three (3) channels were evaluated: • 1. nAChR α3/β4 (encoded by the human CHRNA3 and CHRNB4 gene and stably expressed in CHO cells); • 2. nAChR α4/β2 (CHRNA4 and CHRNB2 gene and transiently expressed in HEK293 cells); and • 3. nAChR α7 (encoded by the human nicotinic α7 gene coexpressed in CHO cells with the chaperone RIC-3 encoded by the human RIC3 gene).
(§3) The ability of each test article to act as an agonist, a positive allosteric modulator or antagonist of three nAChR receptor channels was evaluated in the presence of 0.1 atropine. Both test articles were evaluated for responses on each nAChR channel at eight (8) concentrations: 0.3, 1, 3, 10, 30, 100, 300, and 1000 μM (n=4 for each concentration).
(§4) HEK293 or CHO cells were transiently or stably transfected with the appropriate human ion channel cDNAs. Stable transfectants were selected by coexpression with the antibiotic-resistance gene(s) incorporated into the expression plasmid(s). Selection pressure was maintained by including selection antibiotics in the culture medium. HEK293 cells were cultured in Dulbecco's Modified Eagle Medium/Nutrient Mixture F-12 (D-MEM/F-12) supplemented with 10% fetal bovine serum, 100 U/mL penicillin G sodium, 100 g/mL streptomycin sulfate and appropriate selection antibiotics. CHO cells were cultured in Ham's F-12 supplemented with 10% fetal bovine serum, 100 U/mL penicillin G sodium, 100 g/mL streptomycin sulfate and appropriate selection antibiotics.
(§5) For FLIPR TETRA™ assay, cells were plated in 384-well black wall, flat clear bottom microtiter plates (Type: BD Biocoat Poly-D-Lysine Multiwell Cell Culture Plate) at 20,000 to 30,000 cells per well (384-well plate). Cells were incubated at 37° C. overnight or until the cells reached a sufficient density in the wells (near confluent monolayer) to use in fluorescence assays. For α4β2 assay, cells were incubated at 27° C. for at least 7 hours before use.
(§6) Experiments were performed with either the FLIPR calcium sensitive dye kit (Fluo-8, ABDbioquest, for nAChR α3/β4 and nAChR α7) or FLIPR membrane potential kit (Molecular Devices, for nAChR α4/β2) according to the manufacturer's instructions. Briefly, cells were incubated with 201 dye for 30 min at 37° C. After dye loading period, for the agonist assay, 5 μl of the test, vehicle, or control articles at concentration of 5 times of final concentration were applied to the cells without stimulation. For the positive allosteric modulation (PAM) and antagonist assay, after test article application, the cells were stimulated with either low dose (for PAM) or high dose (for antagonist) of Ach.
(§7) Concentration-response data was fitted to a Hill equation of the following form:
(§8) where Base is the response at low concentrations of test article, Max is the maximum response at high concentrations, xhalf is the EC50 or IC50, the concentration of test article producing either half-maximal activation or inhibition, and rate is the Hill coefficient. Nonlinear least squares fits were made assuming a simple one-to-one binding model.
The ability of each test article to act as an agonist of the nAChR carried out in the absence of the positive control agonist. The signal elicited in the presence of the positive control agonist (30 μM Ach) was set to 100% and the signal from the vehicle control (HBPS) was set to 0%. Values were considered significant (bold font) if the test article mean was three or more standard deviations above from the vehicle control mean.

nAChR α7 = target: T2, nAChR α7 (Homo sapiens, UniProt P36544); test: nAChR α7 channel agonist assay (FLIPR, with PNU-120596); format: cell-based; details: with 10 μM PNU-120596; maximal stimulation not achieved
T2 construct: host or cells: CHO cells
T2 sequence (P36544 23-502): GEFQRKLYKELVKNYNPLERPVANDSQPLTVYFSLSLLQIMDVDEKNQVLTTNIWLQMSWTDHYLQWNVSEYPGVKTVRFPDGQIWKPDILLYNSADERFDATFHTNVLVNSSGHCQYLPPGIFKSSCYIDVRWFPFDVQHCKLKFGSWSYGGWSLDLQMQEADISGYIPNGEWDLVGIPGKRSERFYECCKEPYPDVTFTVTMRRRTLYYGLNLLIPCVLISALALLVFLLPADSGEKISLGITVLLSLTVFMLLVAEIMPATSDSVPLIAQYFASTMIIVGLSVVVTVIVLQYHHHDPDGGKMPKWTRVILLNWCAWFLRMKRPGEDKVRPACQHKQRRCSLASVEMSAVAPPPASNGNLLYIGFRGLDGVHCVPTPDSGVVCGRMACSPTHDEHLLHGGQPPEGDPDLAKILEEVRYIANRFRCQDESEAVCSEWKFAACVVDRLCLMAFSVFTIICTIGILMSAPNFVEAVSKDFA
Procedure: Therefore, the assay of agonist activity for either Ach or for the test articles was conducted in the presence of the positive allosteric modulator.

nAChR α3/β4 [5] = target: T3, nAChR α3/β4 (Homo sapiens, UniProt P30926+P32297); details: in presence of 10 μM Ach
T3 sequence (P32297 32-505): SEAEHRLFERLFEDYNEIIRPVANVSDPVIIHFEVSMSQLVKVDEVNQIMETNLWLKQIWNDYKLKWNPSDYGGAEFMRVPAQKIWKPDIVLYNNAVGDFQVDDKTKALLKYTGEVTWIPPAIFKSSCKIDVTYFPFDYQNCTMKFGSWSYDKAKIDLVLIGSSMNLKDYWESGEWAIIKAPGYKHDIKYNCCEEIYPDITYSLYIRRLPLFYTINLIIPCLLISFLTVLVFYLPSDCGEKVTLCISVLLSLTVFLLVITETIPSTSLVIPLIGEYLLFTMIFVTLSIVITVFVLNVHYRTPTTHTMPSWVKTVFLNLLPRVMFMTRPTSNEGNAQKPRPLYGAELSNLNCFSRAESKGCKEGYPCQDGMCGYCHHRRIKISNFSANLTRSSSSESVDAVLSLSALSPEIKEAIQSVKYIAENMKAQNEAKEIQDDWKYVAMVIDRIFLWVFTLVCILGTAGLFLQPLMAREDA
T3 sequence (P30926 22-498): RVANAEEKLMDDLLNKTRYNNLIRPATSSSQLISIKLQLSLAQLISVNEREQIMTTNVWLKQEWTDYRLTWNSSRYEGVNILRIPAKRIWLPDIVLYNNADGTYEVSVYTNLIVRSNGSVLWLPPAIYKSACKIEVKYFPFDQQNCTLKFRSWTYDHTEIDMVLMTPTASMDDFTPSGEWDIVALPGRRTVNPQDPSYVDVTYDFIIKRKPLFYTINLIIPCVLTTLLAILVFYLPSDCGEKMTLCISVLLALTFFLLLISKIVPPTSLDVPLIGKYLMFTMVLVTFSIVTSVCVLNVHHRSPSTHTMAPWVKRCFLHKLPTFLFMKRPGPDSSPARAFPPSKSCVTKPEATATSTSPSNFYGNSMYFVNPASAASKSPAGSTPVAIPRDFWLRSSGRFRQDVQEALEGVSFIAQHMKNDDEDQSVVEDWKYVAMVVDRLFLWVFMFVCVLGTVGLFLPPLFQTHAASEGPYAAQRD
Procedure: as §4, §5, §6
The signal elicited in the presence of the positive control agonist and allosteric modulator (10 μM Ach+1 μM epibatidine) was set to 100% and the signal from the agonist control (10 μM Ach) was set to 0%.

nAChR α3/β4 [6] = target: T3, nAChR α3/β4; test: nAChR α3/β4 channel agonist assay (FLIPR, Fluo-8 calcium); details: 0.3-1000 μM; maximal stimulation not achieved
Procedure: as §2, §3, §4, §5, §6, §7, §8
The ability of both test articles to act as an agonist of nAChR carried out in the absence of the positive control agonist. The signal elicited in the presence of the positive control agonist, 30 μM acetylcholine (Ach) was set to 100% and the signal from the vehicle control, HEPES-buffered physiological saline (HBPS) solution was set to 0%.

[7] = Group B, 0.1 mg/kg, females, 0.1 mg/kg
[8] = Group B, 0.1 mg/kg, males, 0.1 mg/kg
[9] = Group C, 0.75 mg/kg, females, 0.75 mg/kg
[10] = Group C, 0.75 mg/kg, males, 0.75 mg/kg
[11] = anatabine 0.1 mg/kg single i.v.
[12] = anatabine 0.75 mg/kg single i.v.
[13] = anatabine 0.1 mg/kg, male rats, individual animals
[14] = anatabine 0.75 mg/kg, female rats, individual animals
[15] = anatabine 0.75 mg/kg, male rats, individual animals

## C1=CCC(c2cccnc2)NC1 (racemic) [Anatabine, 1,2,3,6-tetrahydro-[2,3′]bipyridinyl]
[1]
  TNFα-induced NFκB-mediated transcription of luciferase: can reduce this transcription to control levels
[2]
  physical signs: no obvious adverse signs were observed
[3]; [7]
  Tissue Collection Weights: Brain: 1.91 g and 1.89 g (2×) and 1.75 g and 1.86 g
  Tissue Collection Weights: Heart: 1.29 g and 1.12 g and 0.95 g and 1.05 g and 1.25 g
  Tissue Collection Weights: Kidneys: 2.46 g and 2.02 g (2×) and 2.14 g and 2.25 g
  Tissue Collection Weights: Liver: 11.54 g and 10.09 g and 9.94 g and 12.94 g and 9.67 g
  Tissue Collection Weights: Lungs: 1.42 g and 1.39 g and 1.15 g and 1.52 g and 1.59 g
  Tissue Collection Weights: Ovaries/uterus: 0.96 g and 1.79 g and 0.84 g and 1.42 g and 0.70 g
  Tissue Collection Weights: Small intestine: 0.87 g and 0.71 g and 0.55 g and 0.49 g and 0.63 g
  Tissue Collection Weights: Spleen: 0.79 g and 0.62 g and 0.51 g and 0.67 g and 0.65 g
  Tissue Collection Weights: Thymus: 0.68 g and 0.59 g and 0.49 g and 0.71 g and 0.73 g
[3]; [8]
  Tissue Collection Weights: Brain: 2.35 g and 2.16 g and 2.24 g and 2.11 g and 1.88 g
  Tissue Collection Weights: Heart: 1.71 g and 1.59 g and 1.97 g and 1.60 g and 1.85 g
  Tissue Collection Weights: Kidneys: 3.55 g and 3.33 g and 3.70 g and 3.27 g and 3.99 g
  Tissue Collection Weights: Liver: 17.92 g and 15.45 g and 16.98 g and 16.32 g and 17.38 g
  Tissue Collection Weights: Lungs: 2.31 g and 1.77 g and 2.08 g and 1.91 g and 1.83 g
  Tissue Collection Weights: Prostate: 0.72 g and 0.49 g and 0.73 g and 0.53 g and 0.48 g
  Tissue Collection Weights: Small intestine: 0.61 g and 0.96 g and 0.88 g and 0.50 g and 0.35 g
  Tissue Collection Weights: Spleen: 0.91 g and 0.66 g and 0.82 g and 0.93 g and 0.76 g
  Tissue Collection Weights: Testes: 3.69 g and 3.64 g and 3.14 g and 3.35 g and 3.29 g
  Tissue Collection Weights: Thymus: 0.74 g (2×) and 0.76 g and 0.71 g and 0.81 g
[3]; [9]
  Tissue Collection Weights: Brain: 1.99 g and 1.93 g and 1.73 g and 2.06 g and 1.81 g
  Tissue Collection Weights: Heart: 1.09 g and 1.21 g and 1.23 g and 1.03 g and 0.99 g
  Tissue Collection Weights: Kidneys: 2.08 g and 2.20 g and 2.68 g and 2.36 g
  Tissue Collection Weights: Liver: 10.71 g and 8.65 g and 11.37 g and 10.19 g
  Tissue Collection Weights: Lungs: 1.46 g and 1.39 g and 1.62 g and 1.30 g and 1.49 g
  Tissue Collection Weights: Ovaries/uterus: 0.81 g and 1.50 g and 0.72 g and 1.23 g and 3.65 g
  Tissue Collection Weights: Small intestine: 0.72 g and 0.37 g and 0.85 g and 0.47 g and 1.34 g
  Tissue Collection Weights: Spleen: 0.70 g and 0.65 g (2×) and 0.51 g and 0.49 g
  Tissue Collection Weights: Thymus: 0.56 g and 0.53 g and 0.63 g and 0.52 g and 0.54 g
[3]; [10]
  Tissue Collection Weights: Brain: 2.01 g and 2.19 g and 2.12 g and 2.00 g and 2.02 g
  Tissue Collection Weights: Heart: 1.52 g and 1.38 g and 1.56 g and 1.39 g and 1.29 g
  Tissue Collection Weights: Kidneys: 3.45 g and 2.77 g and 3.49 g and 3.16 g and 2.89 g
  Tissue Collection Weights: Liver: 14.92 g and 13.91 g and 14.70 g and 14.01 g and 14.94 g
  Tissue Collection Weights: Lungs: 1.86 g and 1.97 g and 1.72 g and 1.95 g and 1.58 g
  Tissue Collection Weights: Prostate: 0.49 g (2×) and 0.65 g and 0.46 g and 0.45 g
  Tissue Collection Weights: Small intestine: 0.54 g and 1.41 g and 0.56 g and 0.41 g and 0.47 g
  Tissue Collection Weights: Spleen: 0.71 g and 0.63 g and 0.79 g and 0.93 g and 0.64 g
  Tissue Collection Weights: Testes: 3.19 g and 3.84 g and 3.03 g and 3.28 g and 2.70 g
  Tissue Collection Weights: Thymus: 1.02 g and 0.52 g and 0.67 g and 0.69 g and 0.47 g
[3]; [11]
  Organ Weight Brain, Mean: 2.15 g
  Organ Weight Heart, Mean: 1.74 g
  Organ Weight Kidneys, Mean: 3.57 g
  Organ Weight Liver, Mean: 16.81 g
  Organ Weight Lungs, Mean: 1.98 g
  Organ Weight Prostate, Mean: 0.59 g
  Organ Weight Small intestine, Mean: 0.66 g
  Organ Weight Spleen, Mean: 0.82 g
  Organ Weight Testes, Mean: 3.42 g
  Organ Weight Thymus, Mean: 0.75 g
[3]; [12]
  Organ Weight Brain, Mean: 2.07 g
  Organ Weight Heart, Mean: 1.43 g
  Organ Weight Kidneys, Mean: 3.15 g
  Organ Weight Liver, Mean: 14.50 g
  Organ Weight Lungs, Mean: 1.82 g
  Organ Weight Prostate, Mean: 0.51 g
  Organ Weight Small intestine, Mean: 0.68 g
  Organ Weight Spleen, Mean: 0.74 g
  Organ Weight Testes, Mean: 3.21 g
  Organ Weight Thymus, Mean: 0.67 g
[3]; 0.1 mg/kg
  Organ Weight Brain: 1.86 g
  Organ Weight Heart: 1.13 g
  Organ Weight Kidneys: 2.18 g
  Organ Weight Liver: 10.84 g
  Organ Weight Lungs: 1.41 g
  Organ Weight Ovaries/uterus: 1.14 g
  Organ Weight Small intestine: 0.65 g
  Organ Weight Spleen: 0.65 g
  Organ Weight Thymus: 0.64 g
[3]; 0.75 mg/kg
  Organ Weight Brain: 1.90 g
  Organ Weight Heart: 1.11 g
  Organ Weight Kidneys: 2.30 g
  Organ Weight Liver: 10.42 g
  Organ Weight Lungs: 1.45 g
  Organ Weight Ovaries/uterus: 1.58 g
  Organ Weight Small intestine: 0.75 g
  Organ Weight Spleen: 0.60 g
  Organ Weight Thymus: 0.56 g
[4]; anatabine 0.1 mg/kg, female rats, individual animals
  ACTIVE PARTIAL THROMBOPLASTIN TIME: 31.1 s and 34.2 s and 26 s and 28.9 s
[4]; [13]
  ACTIVE PARTIAL THROMBOPLASTIN TIME: 36.4 s and 28.9 s and 32 s
  PROTHROMBIN TIME: 13.4 s and 12.5 s
[4]; [14]
  ACTIVE PARTIAL THROMBOPLASTIN TIME: 32.5 s and 32.7 s and 38.2 s
  PROTHROMBIN TIME: 23.8 s
[4]; [15]
  ACTIVE PARTIAL THROMBOPLASTIN TIME: 39.7 s and 43.9 s and 50.4 s
  PROTHROMBIN TIME: 17.9 s
[4]; female, 0.1 mg/kg, group mean
  ACTIVATED PARTIAL THROMBOPLASTIN TIME: 29.4 s
[4]; female, 0.75 mg/kg, group mean
  ACTIVATED PARTIAL THROMBOPLASTIN TIME: 33.3 s
  PROTHROMBIN TIME: 14.1 s
[4]; male, 0.1 mg/kg, group mean
  PROTHROMBIN TIME: 12.8 s
[4]; male, 0.75 mg/kg, group mean
  ACTIVATED PARTIAL THROMBOPLASTIN TIME: 38.7 s
  PROTHROMBIN TIME: 13.3 s
nAChR α4/β2
  agonist activity: displays full agonist activity
nAChR α7
  agonist activity: showed agonist activity
nAChR α3/β4 [5]
  potentiation: Neither nicotine nor anatabine potentiated the activity
nAChR α3/β4 [6]
  agonist activity: showed agonist activity
